From patent publication US20190316211A1, “ONCOGENIC ALTERNATIVE SPLICING SWITCH OF PACE4 IN CANCER” (SOCIETE DE COMMERCIALISATION DES PRODUITS DE LA RECHERCHE …, priority 2016, published 2019) come the findings set out here.

One assay concerns LNCaP cells. Description: PACE4 exon 25 splicing index (PACE4-altCT/PACE4-FL mRNA) by qPCR. It is filed as cell-based. The note with it: treated for 72 h. How it is done: (§1) For actinomycin-D (Sigma Aldrich) or cycloheximide (Sigma Aldrich) treatments, compounds were first dissolved in DMSO, and diluted to a final concentration of 5 μg/mL and 40 μg/mL in the culture medium respectively. Actinomycin-D treatment never exceeded 8 h, which is the time-frame prior to early apoptosis induction. For treatments wit 5-aza-2′-deoxy-cytidine (Sigma Aldrich), compound was first dissolved in DMSO and further diluted prior to addition to cell culture medium, which was changed every day and replaced with fresh one containing the compound for a total exposure of 72 h. […]
(§2) 1 μg RNA was DNase I-treated (Invitrogen), reverse-transcribed using Superscript II reverse transcriptase (Invitrogen), and RNase H-treated (Ambion, Austin, Tex.) before quantitative PCR performed using a Stratagene Mx3005P instrument. Relative expression levels were calculated using β-actin as a reference gene with the formula (1+amplification efficiency)^−(CT). […]

A further assay deals with DU145 cells. The assay is described as above. Type of assay: cell-based. Particulars: DU145, treated for 72 h. The protocol: as §1, §2
Assay [1] concerns CpG dinucleotides of interest in PCSK6 gene. Description: CpG methylation status analysis by pyrosequencing. Type of assay: cell-based. The note with it: DU145 and LNCaP cells, 72 h, refreshed every 24 h. The text has this:
FIG. 5 illustrates decitabine (5-aza-dC) efficiency at hypomethylating CpG dinucleotides of interest in PCSK6 gene, showing in (A) schematic representation of the 3′ extremity of PCSK6 gene, putting emphasis on the coding and non-coding region between exon 24, exon 25 and exon 25 alt, wherein ChiP-Seq enriched regions as viewed in UCSC genome browser ChiP-Seq are represented as ovals, each CpG nucleotide analyzed is highlighted, and the inversion of 5′ and 3′ ends is shown for reading purposes; (B) DU145 and LNCaP cells (C) were treated with decitabine at the indicated concentrations for 72 h (medium and decitabine being refreshed every 24 h) and DNA was extracted and used for CpG methylation status analysis using pyrosequencing.
DNA was purified from 14 pairs of tumoral and non-tumoral prostate biopsies and from DU145 and LNCaP cells treated with 5axa-dC using DNeasy Blood & Tissue Kit (Qiagen, #69504). Concentration, yield and purity of gDNA samples were measured using spectrometry. All samples provided good gDNA yield and quality (A260/A280 ratio between 1.7 and 2.0). Gold standard pyrosequencing technology was used to determine base-specific cytosine methylation levels located upstream of guanines (sequence called CpG dinucleotides). […] Overall, nine potentially methylated cytosines (in a CpG dinucleotides context) were analyzed at the PCSK6 gene locus.

For assay [2], the system named is CTCF binding to PCSK6 alternative terminal exon regions. Description: Chromatin immunoprecipitation with anti-CTCF antibody. Type of assay: cell-based. The note with it: DU145 and LNCaP cells treated for 72 h. The protocol: Cells were cultured in 150 mm culture dishes and submitted to crosslinking through the addition of formaldehyde to a final concentration of 1.1% for 10 min at room temperature followed by a quenching step with 125 mM glycine for another 5 min. Cells were washed twice with ice-cold PBS, collected using a cell scraper and frozen in liquid nitrogen and stored at −80° C. until analyses. Cell pellets were resuspended in HEPES 10 mM pH 6.5; 0.5 mM EDTA, 0.25% Triton-X-100 and centrifugated at 4,000 rpm at 4° C. for 5 min. Pellet was further lysed by adding 200 μL of Tris 50 mM pH 8.1; 10 mM EDTA, 1% SDS and passing 3 times through a 28 G syringe. Cell preparations were incubated 1 h at 4° C. with constant agitation and nuclei were pelleted by a centrifugation at 5,000 rpm. […] DNA fragmentation was routinely assessed by agarose gel electrophoresis using 10 μL of the fragmented DNA solution (beforehand treated with RNase A 10 μg/mL for 10 min). For each IP, 350 μg of DNA were used (based on concentration determined using the OD260 nm) and 5% of the corresponding volumes were kept aside as Input DNA for quantitation. […] 3 μL of the purified DNA were further used for qPCR analyses and quantitation was established using the 1% input as a standard.

The target in assay [3] is growth differentiation factor 15 (human) (UniProt Q99988). The experiment in a line: cell-based or functional assay.
Another assay has as its system IGF1R. Description: Western blot of PC substrate processing in inhibitor-treated DU145 and LNCaP lines. It is filed as cell-based. The note with it: 50 μM, 48 h. How it is done: (§3) Western blotting were carried out of (i) cell lines silenced with shPACE4, shfurin and shPC7, (ii) cell lines stably expressing PACE4-FL and PACE4-altCT and (iii) cell lines treated with either the non-selective and irreversible PC inhibitor decanoyl-RVKR-chloromethylketone (CMK) or the PACE4 high affinity peptide inhibitor [dLeu]LLLRVK-amidinobenzylamide (Amba; dL-ML-Amba), herein after called C23 (Levesque et al., 2015, Oncotarget, 6: 3680-3693). In order to test the western blot arrays, known PC substrates were chosen, namely, the insulin-like growth factor 1 receptor (IGF1R) and integrin alpha-6 (ITGA6); two well-accepted furin substrates, were evaluated (FIGS. 10A and B) and E-cadherin. […] In contrast, the overexpression of PACE4-FL and PACE4-altCT did increase the processing of IGF1R and ITGA6 pro-forms, highlighting the cautionary interpretation that are needed in overexpression studies.
(§4) For substrates analysis, cell lysates were prepared by plating equal number of cells in p100 mm plates in complete medium. 24 h later, medium was replaced by 6 mL of serum-free fresh medium (with treatment if indicated; 50 μM of dL-ML-Amba or dec-RVKR-CMK (Bachem, Torrance, Calif.) and cells were further incubated 48 h. Medium was then collected and centrifuged at 1,000×g for 10 min at room temperature to remove any floating cells, aliquot of medium were then taken (800 μL), flash-frozen in liquid nitrogen, lyophilized overnight, restituted in 100 μL of Laemmli buffer: 8M urea (1:1) and boiled for 5 min until complete resuspension. 25 μL of concentrated medium were loaded on SDS-PAGE (equivalent of 200 μL of culture medium). Cells were carefully washed with PBS and lysed from cell pellet (resulting from 1,000×g centrifugation) using radio-immunoprecipitation assay buffer (RIPA) as described in (Couture et al., 2012). Samples were incubated 20 min on ice and further centrifuged 30 min at 13.000 rpm at 4° C. Protein concentration was determined by bicinchoninic acid assay (Pierce) to load 15 μg on polyacrylamide gels. […] was used as a loading control, for conditioned media, a Coomassie blue staining was routinely performed to control for protein loading.

The test system of another assay is ITGA6. The description is as above. It is filed as cell-based. Particulars: 50 μM, 48 h. The protocol:
as §3, §4

Another assay has as its system GDF-15 in LNCaP cells. The experiment in a line: GDF-15 cleavage and secretion analysis (western blot, ELISA). It is filed as cell-based. Particulars: treated LNCaP cells, western blot array and ELISA. An excerpt:
FIG. 10 illustrates the identification and validation of GDF-15 as a PACE4-specific substrate in prostate cancer cells, showing in (A) Western blots of candidate PC substrates across the knockdown, overexpressing and inhibitor-treated DU145 and LNCaP (B) lines; (C) expression of GDF-15 in DU145 and LNCaP cells showing that mature GDF-15 is secreted in the medium; (D) GDF-15 concentrations in DU145 and LNCaP conditioned medium determined by ELISA; (E) GDF-15 cleavage analysis in the LNCaP cells panel; (F) GDF-15 concentrations in the conditioned medium determined by ELISA; (G) GDF-15 cleavage analysis in LNCaP treated with either the ML-peptide or the cell impermeable analog (PEG8-ML); (H) GDF-15 spanning peptide cleavage by PACE4 and furin monitored by HPLC, cleavage site is underlined in the spanning peptide sequence, peptide identity was confirmed by MALDI-TOF upon collection of associated fractions; (I) Western blot analysis of paired adjacent non-cancerous tissues (ANCT) and prostate tissues (PCa); and (J) a blot showing various cancer grades is shown together with the densitometric analysis of 21 tissues pairs (n=6 (3+3), 7 (3+4), 6 (4+3), 2 (5+X) X being 3 and 4).
GDF-15 is known to supports both the proliferation and clonogenic potential of LNCaP cells, which is also in line with the observed phenotypes for both PACE4 knockdown and overexpressing cells. […]

Sequence of growth differentiation factor 15 (human) (Q99988 195-308): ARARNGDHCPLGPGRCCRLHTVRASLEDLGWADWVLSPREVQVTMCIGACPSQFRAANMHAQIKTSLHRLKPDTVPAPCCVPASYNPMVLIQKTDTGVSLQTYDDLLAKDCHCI

`Nc1ncn([C@H]2C[C@H](O)[C@@H](CO)O2)c(=O)n1` [decitabine, 5-aza-2′-deoxycytidine]: the “change of splicing index” value in the assay with LNCaP cells and in the assay with DU145 cells was “increased in a dose-dependent manner” in each case. For the same compound, the CpG hypomethylation entry in assay [1] is “sensitive to decitabine in a dose-dependent manner”. In addition, in assay [2], the “CTCF ChIP enrichment of intra-exonic and upstream region” value is reported as “clear enrichment”.

In assay [3], “PACE4-FL (from UniProt P29122 150-969) (enzyme)” yielded an amount of secreted GDF-15 in conditioned medium (ELISA) (times higher than pLenti6 control cells) of 5.

Consider [dLeu]LLLRVK-amidinobenzylamide [C23], for which, in the assay with IGF1R, the “processing of IGF1R pro-form” value is listed as “no effect”. Moreover, the “processing of ITGA6 pro-form” value with ITGA6 is given as “no effect”. For the same compound, in the assay with GDF-15 in LNCaP cells, the “GDF-15 observed in the medium” value is “virtually no pro-GDF-15 could be observed”.

Consider decanoyl-RVKR-chloromethylketone [CMK], for which the “processing of IGF1R pro-form” value with IGF1R is reported as “prevented the processing”. Further, the “processing of ITGA6 pro-form” value with ITGA6 is listed as “prevented the processing”. In addition, the “GDF-15 observed in the medium” value with GDF-15 in LNCaP cells is “virtually no pro-GDF-15 could be observed”.
